Reference: paper PMC8260761, “A bacteriocin-based treatment option for Staphylococcus haemolyticus biofilms” (Scientific Reports, 2021)

Key:
Test in all cases: Spot-on-lawn inhibition assay
Type in all cases: cell-based
[1] = tested on: Staphylococcus haemolyticus strains; design: key to Average inhibition score: –: “−” = No inhibition; “+” = Unclear zone; “++” = zone < 1 cm; “+++” = zone ≥ 1 cm
Description: (§1) A semi-quantitative spot-on-lawn inhibitory assay was performed on 51 bacterial indicator strains (Table S1) to determine the bacteriocins inhibition spectra. Overnight cultures were diluted 1:100 in BHI soft agar and distributed on BHI agar plates. Once solidified, bacteriocins with various concentrations were applied on designated spots. The plates were incubated at appropriate temperature O/N and inhibition zones were measured the following day. To determine minimal inhibitory concentration (MIC50) of H1 against clinical S. haemolyticus isolates (Table S2), as well as strains heterologously expressing RseP (Table S4), the microtiterplate antimicrobial assay was performed as previously described[41],[79]. MIC50 was defined as the minimal bacteriocin concentration needs to inhibit the growth of a bacterial strain by at least 50%.

S. epidermidis = tested on: S. epidermidis; design: key: “-“ = No inhibition; “+” = Unclear zone; “++” = zone < 1 cm; “+++”= zone > 1 cm; details: S. epidermidis LMG 3522; 5 µl at 1 mg/ml; n=3
Description: as §1

Staphylococcus arlettae = tested on: Staphylococcus arlettae; design: key: “-“ = No inhibition; “+” = Unclear zone; “++” = zone < 1 cm; “+++”= zone > 1 cm; details: Staphylococcus arlettae LMG 4134; 5 µl at 1 mg/ml; n=3
Description: as §1

S. homonis = S. homonis LMG 3129; 5 µl at 1 mg/ml; n=3
Description: as §1

Lactobacillus curvatus = details: 5 µl at 1 mg/ml, n=3
Description: as §1

E. faecium = details: 5 µl at 1 mg/ml, n=3
Description: as §1

L. monocytogenes = tested on: L. monocytogenes; design: key: –: “−” = No inhibition; “+” = Unclear zone; “++” = zone < 1 cm; “+++” = zone ≥ 1 cm; details: L. monocytogenes EDGe; 5 µl at 1 mg/ml; n=3
Description: as §1

Bacillus cereus = tested on: Bacillus cereus; design: key: –: “−” = No inhibition; “+” = Unclear zone; “++” = zone < 1 cm; “+++” = zone ≥ 1 cm; details: 5 µl at 1 mg/ml, n=3
Description: as §1

S. uberis = tested on: S. uberis; design: key: –: “−” = No inhibition; “+” = Unclear zone; “++” = zone < 1 cm; “+++” = zone ≥ 1 cm; details: S. uberis 7904-3; 5 µl at 1 mg/ml; n=3
Description: as §1

C. piscicola = tested on: C. piscicola; design: key: –: “−” = No inhibition; “+” = Unclear zone; “++” = zone < 1 cm; “+++” = zone ≥ 1 cm; details: C. piscicola LMG 2332; 5 µl at 1 mg/ml; n=3
Description: as §1

MKFKFNPTGTIVKKLTQYEIAWFKNKHGYYPWEIPRC [K1, enterocin K1]
+++ (“+++”= zone > 1 cm): Average inhibition score (Lactobacillus curvatus; L. curvatus LMG 2353) | Average inhibition score (Lactobacillus curvatus; Lactobacillus curvatus LTH 1174) | Average inhibition score (E. faecium; E. faecium P13)
++ (“++” = zone < 1 cm): Average inhibition score ([1]; S. haemolyticus 7067_4_60, 5 μl at 1 mg/ml, n = 3) | Average inhibition score (S. homonis) | Average inhibition score (E. faecium; E. faecium AL41) | Average inhibition score (E. faecium; E. faecium L50) | Average inhibition score (E. faecium; E. faecium P21)
+: Average inhibition score ([1]; S. haemolyticus LMG 4133, 5 µl at 1 mg/ml, n=3) | Average inhibition score ([1]; S. haemolyticus SH10, 5 μl at 1 mg/ml, n = 3) | Average inhibition score ([1]; S. haemolyticus SH20, 5 μl at 1 mg/ml, n = 3) | Average inhibition score ([1]; S. haemolyticus SH47, 5 μl at 1 mg/ml, n = 3) | Average inhibition score (L. monocytogenes) | Average inhibition score (Bacillus cereus; B. cereus LMG 2711) | Average inhibition score (Bacillus cereus; B. cereus LMG 2731) | Average inhibition score (Bacillus cereus; Bacillus cereus LMG 2805) | Average inhibition score (S. uberis) | Average inhibition score (C. piscicola)
-: Average inhibition score (S. epidermidis) | Average inhibition score (Staphylococcus arlettae)
–: Average inhibition score ([1]; S. haemolyticus 4068, 5 μl at 1 mg/ml, n = 3) | Average inhibition score ([1]; S. haemolyticus 4069, 5 μl at 1 mg/ml, n = 3) | Average inhibition score ([1]; S. haemolyticus 4070, 5 μl at 1 mg/ml, n = 3) | Average inhibition score ([1]; S. haemolyticus 4071, 5 μl at 1 mg/ml, n = 3) | Average inhibition score ([1]; S. haemolyticus 4072, 5 μl at 1 mg/ml, n = 3) | Average inhibition score ([1]; S. haemolyticus 4073, 5 μl at 1 mg/ml, n = 3) | Average inhibition score ([1]; S. haemolyticus 7067_4_21, 5 μl at 1 mg/ml, n = 3) | Average inhibition score ([1]; S. haemolyticus 7067_4_28, 5 μl at 1 mg/ml, n = 3) | Average inhibition score ([1]; S. haemolyticus 7067_4_39, 5 μl at 1 mg/ml, n = 3) | Average inhibition score ([1]; S. haemolyticus 7067_4_48, 5 μl at 1 mg/ml, n = 3) | Average inhibition score ([1]; S. haemolyticus 7067_4_49, 5 μl at 1 mg/ml, n = 3) | Average inhibition score ([1]; S. haemolyticus 7067_4_56, 5 μl at 1 mg/ml, n = 3) | Average inhibition score ([1]; S. haemolyticus 7067_4_66, 5 μl at 1 mg/ml, n = 3) | Average inhibition score ([1]; S. haemolyticus 7067_4_67, 5 μl at 1 mg/ml, n = 3) | Average inhibition score ([1]; S. haemolyticus 7067_4_71, 5 μl at 1 mg/ml, n = 3) | Average inhibition score ([1]; S. haemolyticus 7067_4_84, 5 μl at 1 mg/ml, n = 3) | Average inhibition score ([1]; S. haemolyticus 7068_7_63, 5 μl at 1 mg/ml, n = 3) | Average inhibition score ([1]; S. haemolyticus SH01, 5 μl at 1 mg/ml, n = 3) | Average inhibition score ([1]; S. haemolyticus SH04, 5 μl at 1 mg/ml, n = 3) | Average inhibition score ([1]; S. haemolyticus SH09, 5 μl at 1 mg/ml, n = 3) | Average inhibition score ([1]; S. haemolyticus SH14, 5 μl at 1 mg/ml, n = 3) | Average inhibition score ([1]; S. haemolyticus SH46, 5 μl at 1 mg/ml, n = 3)
did not result in any inhibition: Inhibition zones at three concentrations ([1]; six S. haemolyticus strains 4068–4073, 0.04, 0.2 and 1.0 mg/ml, 5 µl spotted)
